Reference: article PMC5727211, “Development of Erasin: a chromone-based STAT3 inhibitor which induces apoptosis in Erlotinib-resistant lung cancer cells” (Scientific Reports, 2017)
Entries after “also recorded” stand apart in the source; their conditions may differ.

Columns and labels:
Assay type in all cases: cell-based, human
Conditions in all cases: 24 h
MDA-MB-453 cells = experiment: Apoptosis assay (Annexin V/7-AAD flow cytometry), MDA-MB-453 cells
Experimental: MDA-MB-453 cells (3 × 10^5 cells per well), MDA-MB-231 cells (2 × 10^5 cells per well), parental HCC-827 or Erlotinib-resistant HCC-827 cells (both 2.5 × 10^5 cells per well) were seeded in 24-well tissue culture plates (Corning #3524) and treated with test compound or DMSO (final DMSO concentration: 0.2%) for 24 h. Afterwards, the cell culture supernatant from each well was collected. Cells were washed twice with warm PBS and incubated with Accutase (BD Bioscience #561527) at 37 °C for 10 min. The supernatants were then returned to each well to neutralize the Accutase solution and the cells were centrifuged at 3000 rpm, at 4 °C for 5 min. The cell pellets were washed twice with cold PBS and centrifuged again. PE Annexin V Apoptosis Detection Kit I (BD Bioscience, 559763) was used for cell staining. Cells were resuspended in 1 x binding buffer and incubated with PE Annexin V and 7-AAD at 4 °C for 30 min. Apoptosis was measured using an LSR II flow cytometer (BD Bioscience). Experiments were carried out in at least triplicate.

[1] = system: Erlotinib-resistant HCC-827 cells; experiment: Apoptosis assay (Annexin V/7-AAD flow cytometry), Erlotinib-resistant HCC-827 cells
Experimental: Afterwards, the cell culture supernatant from each well was collected. […] The supernatants were then returned to each well to neutralize the Accutase solution and the cells were centrifuged at 3000 rpm, at 4 °C for 5 min. The cell pellets were washed twice with cold PBS and centrifuged again. […] Cells were resuspended in 1 x binding buffer and incubated with PE Annexin V and 7-AAD at 4 °C for 30 min. Apoptosis was measured using an LSR II flow cytometer (BD Bioscience). Experiments were carried out in at least triplicate. […]

[2] = system: STAT3 Tyr705 phosphorylation; experiment: Western Blot, STAT3 Tyr705 phosphorylation in parental HCC-827 cells
Experimental: (§1) HepG2 cells were plated in 6-well plates (Corning #3516) and allowed to reach approximately 60% confluence. The medium was then replaced with serum-free medium for 24 h. Cells were subsequently pre-treated with compound or DMSO (final DMSO concentration: 0.2%) for 1 h at 37 °C, prior to stimulation for 15 min with 50 ng/mL IFNγ (Pepro Tech, for STAT1 phosphorylation), or 30 min with 50 ng/mL IL-6 (Pepro Tech, for STAT3 phosphorylation). Cells were treated with test compound or DMSO for 1 h (final DMSO concentration 0.2%). K562 cells (1.5 × 10^6 cells per well) were seeded in 6-well plates (Corning #3516) and were treated with test compound or DMSO for 1.5 h (final DMSO concentration 0.2%). […] Afterwards, cells were treated with the test compounds or DMSO (final DMSO concentration: 0.2%) for 24 h. Afterwards, the cells were washed twice with cold phosphate buffered saline (PBS). […]
(§2) Lysates were separated on a polyacrylamide gel under denaturing conditions, and transferred to a nitrocellulose membrane. STAT phosphorylation was assessed using rabbit monoclonal antibodies against the phosphorylated forms only of STAT1, STAT3 or STAT5 (Cell Signaling, 1:1000) with secondary antibody swine anti-rabbit HRP from Dako, 1:3000), followed by reblotting with rabbit monoclonal antibodies against total STAT1, STAT3 or STAT5 (Cell Signaling), and subsequently β-actin loading control. […]

[3] = system: STAT3 Tyr705 phosphorylation; experiment: Western Blot, STAT3 Tyr705 phosphorylation in Erlotinib-resistant HCC-827 cells
Experimental: as §1, §2

parental HCC-827 cells = experiment: Apoptosis assay (Annexin V/7-AAD flow cytometry), parental HCC-827 cells
Experimental: Afterwards, the cell culture supernatant from each well was collected. […] The supernatants were then returned to each well to neutralize the Accutase solution and the cells were centrifuged at 3000 rpm, at 4 °C for 5 min. The cell pellets were washed twice with cold PBS and centrifuged again. […] Cells were resuspended in 1 x binding buffer and incubated with PE Annexin V and 7-AAD at 4 °C for 30 min. Apoptosis was measured using an LSR II flow cytometer (BD Bioscience). Experiments were carried out in at least triplicate.

| SMILES | increase in rate of apoptosis relative to DMSO control (MDA-MB-453 cells) | increase in rate of apoptosis relative to DMSO control [1] | STAT3 Tyr705 phosphorylation [2] | STAT3 Tyr705 phosphorylation [3] | increase in rate of apoptosis relative to DMSO control (parental HCC-827 cells) |
| --- | --- | --- | --- | --- | --- |
| CCC(C)(C)c1ccc2occ(/C=N/NC(=O)c3cccnc3)c(=O)c2c1 [Compound 9] | did not significantly increase apoptosis | did not increase the apoptotic rate | did not reduce STAT3 Tyr705 phosphorylation | did not reduce STAT3 Tyr705 phosphorylation | did not significantly increase apoptosis; also recorded: did not increase the apoptotic rate |
| CC(C)(C)c1ccc2occ(/C=N/NC(=O)c3cccnc3)c(=O)c2c1 [Compound 8] | did not show an increase | equally effective | dose-dependent inhibitory effect | dose-dependent inhibitory effect | up to four-fold increase |
